The numbers were not newly measured in patent US20030158158A1, “Oct preparations” (priority 2000, published 2003), which cites them from elsewhere.

Each structure is given as a SMILES string.

Assay in data set [1]: not given
This is another data set of the same source.

Assay in data set [2]: not given
The source holds these as a separate data set.

In the case of `C=C1/C(=C\C=C2/CCC[C@]3(C)[C@@H]([C@H](C)OCCC(C)(C)O)CC[C@@H]23)C[C@@H](O)C[C@@H]1O` [OCT, 1α,25-dihydroxy-22-oxavitamin D3], the “in vitro differentiation-inducing activity” value was “strong”. Further, the “decomposition in aqueous solutions” value in data set [1] is reported as “rapidly decompose”. In addition, the “in vivo calcium elevating effect” value in data set [2] is reported as “low”.
